Measurements: patent EP1561465A2, “Methods of use of fluoroquinolone compounds against bacteria” (LG Life Sciences, Ltd., priority 1999, dated 2001)
≈ marks a conversion by molar mass, not a printed value. Where two headings read alike, the source gives them in different places.

Key:
P. mirabilis [1] = experiment: Urinary bactericidal titers (UBT) and AUBTC of volunteers' urine; format: cell-based; conditions: P. mirabilis (16) Laboratory No. 414; urine after gemifloxacin 320 mg or ofloxacin 400 mg
Acinetobacter spp. = experiment: MIC by agar dilution (NCCLS), 322 nosocomial Gram negative isolates, Athens 1998; format: cell-based; conditions: n = 38 strains
Streptococcus pneumoniae = experiment: MIC by broth microdilution (NCCLS), dried MicroScan panels, clinical isolates 1998-1999; format: cell-based; conditions: for MIC90: Streptococcus pneumoniae
K. pneumoniae [2] = experiment: Urinary bactericidal titers (UBT) and AUBTC of volunteers' urine; format: cell-based; conditions: K. pneumoniae (16) Laboratory No. 595; urine after gemifloxacin 320 mg or ofloxacin 400 mg
E. coli = experiment: as above; format: cell-based; conditions: for AUBTC (range): urine after gemifloxacin 320 mg or ofloxacin 400 mg
Yersinia enterocolitica = experiment: MIC by agar dilution (NCCLS M7-A4), 288 enteropathogenic isolates, eight quinolones; format: cell-based; conditions: Yersinia enterocolitica (n = 22)
S. aureus = experiment: MIC and MBC by microdilution in Mueller-Hinton broth, uropathogens; format: cell-based; conditions: Staphylococcus aureus
Description: (§1) MICs and MBCs were determined by a microdilution method with Mueller-Hinton broth. An inoculum of 1.3-9.4 x 10^5 colony forming units (CFU) per ml was used.
(§2) Strains included a reference strain E. coli ATCC 25922, susceptible to nalidixic acid (Nal-S) and the following clinical isolates obtained from complicated UTI patients: E. coli (resistant to nalidixic acid), K. pneumoniae, P. mirabilis , P. aeruginosa, […] (3 strains) and Enterococcus faecalis (2 strains).

P. aeruginosa = experiment: as above; format: cell-based
Description: as §1, §2

K. pneumoniae [3] = experiment: as above; format: cell-based
Description: as §1, §2

P. mirabilis [4] = experiment: as above; format: cell-based
Description: as §1, §2

E. faecalis [5] = experiment: as above; format: cell-based; conditions: Enterococcus faecalis
Description: as §1, §2

E. faecalis [6] = experiment: Urinary bactericidal titers (UBT) and AUBTC of volunteers' urine; format: cell-based; conditions: urine after gemifloxacin 320 mg or ofloxacin 400 mg
[7] = set-up: species or system healthy volunteers; conditions: human, in vivo, po
Haemophilus influenzae = experiment: MIC by agar dilution (NCCLS), 411 isolates Buenos Aires 1998-99; format: cell-based; conditions: Haemophilus influenzae (n = 65)
Streptococcus pyogenes = experiment: as above; format: cell-based; conditions: Streptococcus pyogenes (n = 69)
[8] = Streptococcus pneumoniae (302 isolates)
[9] = S. aureus Laboratory No. 83, inoculum 7.1 CFU 10^5/ml
[10] = S. aureus Laboratory No. 161, inoculum 9.4 CFU 10^5/ml
[11] = S. aureus Laboratory No. 636, inoculum 5.6 CFU 10^5/ml
[12] = E. faecalis Laboratory No. 55, inoculum 6.0 CFU 10^5/ml
[13] = E. faecalis Laboratory No. 60, inoculum 7.0 CFU 10^5/ml

## CC1COc2c(N3CCN(C)CC3)c(F)cc3c(=O)c(C(=O)O)cn1c23 (stereo not drawn) [Ofloxacin, ofloxacin]
P. mirabilis [1]
  AUBTC (range): 438 (276-654)
Acinetobacter spp.; Acinetobacter
  MIC50: 8 µg/mL (≈ 22.1 µM)
  MIC90: 64 µg/mL (≈ 177 µM)
Acinetobacter spp.
  MIC Range: 0.125 to 64 µg/mL
Streptococcus pneumoniae; [8]
  MIC50: 2 µg/mL (≈ 5.53 µM)
  MIC Range: ≤0.06 to 4 µg/mL
  MIC90: 4 µg/mL (≈ 11.1 µM)
Streptococcus pneumoniae; Erythromycin-resistant (86)
  MIC90: 2 µg/mL (≈ 5.53 µM)
Streptococcus pneumoniae; Erythromycin-sensitive (216)
  MIC90: 4 µg/mL (≈ 11.1 µM)
Streptococcus pneumoniae; Penicillin-intermediate (124)
  MIC90: 4 µg/mL (≈ 11.1 µM)
Streptococcus pneumoniae; Penicillin-resistant (80)
  MIC90: 2 µg/mL (≈ 5.53 µM)
Streptococcus pneumoniae; Penicillin-sensitive (98)
  MIC90: 2 µg/mL (≈ 5.53 µM)
K. pneumoniae [2]
  AUBTC (range): 414 (180-636)
E. coli; E. coli (16) ATCC 25922
  AUBTC (range): 537 (258-888)
E. coli; E. coli (16) Laboratory No. 523
  AUBTC (range): 276 (90-516)
E. coli; reference strain E. coli ATCC 25922, 320 mg gemifloxacin / 400 mg ofloxacin
  time for which median UBTs exceed 0: 4 days
Yersinia enterocolitica
  % Susceptible: 100%
  MIC50: 0.12 µg/mL (≈ 0.332 µM)
  MIC90: 0.12 µg/mL (≈ 0.332 µM)
  MIC Range: 0.03 to 0.5 µg/mL
S. aureus; [9]
  MBC: 0.25 µg/mL (≈ 0.692 µM)
  MIC: 0.25 µg/mL (≈ 0.692 µM)
S. aureus; [10]
  MBC: 4 µg/mL (≈ 11.1 µM)
  MIC: 4 µg/mL (≈ 11.1 µM)
S. aureus; [11]
  MBC: 32 µg/mL (≈ 88.6 µM)
  MIC: 32 µg/mL (≈ 88.6 µM)
S. aureus; S. aureus isolate (0.008/0.25)
  MIC: 0.25 µg/mL (≈ 0.692 µM)
S. aureus; S. aureus isolate (0.25/4)
  MIC: 4 µg/mL (≈ 11.1 µM)
S. aureus; S. aureus isolate (2/32), quinolone-resistant
  MIC: 32 µg/mL (≈ 88.6 µM)
P. aeruginosa; P. aeruginosa Laboratory No. 568, inoculum 5.6 CFU 10^5/ml
  MIC: 4 µg/mL (≈ 11.1 µM)
P. aeruginosa; Pseudomonas aeruginosa, P. aeruginosa Laboratory No. 568, inoculum 5.6 CFU 10^5/ml
  MBC: 4 µg/mL (≈ 11.1 µM)
P. aeruginosa; Pseudomonas aeruginosa, P. aeruginosa clinical isolate, read-out: MIC
  MIC: 4 µg/mL (≈ 11.1 µM)
K. pneumoniae [3]; K. pneumoniae Laboratory No. 595, inoculum 3.7 CFU 10^5/ml
  MIC: 0.06 µg/mL (≈ 0.166 µM)
K. pneumoniae [3]; Klebsiella pneumoniae, K. pneumoniae Laboratory No. 595, inoculum 3.7 CFU 10^5/ml
  MBC: 0.06 µg/mL (≈ 0.166 µM)
K. pneumoniae [3]; Klebsiella pneumoniae, K. pneumoniae clinical isolate, read-out: MIC
  MIC: 0.06 µg/mL (≈ 0.166 µM)
P. mirabilis [4]; P. mirabilis Laboratory No. 414, inoculum 2.5 CFU 10^5/ml
  MIC: 0.125 µg/mL (≈ 0.346 µM)
P. mirabilis [4]; Proteus mirabilis
  MIC: 0.125 µg/mL (≈ 0.346 µM)
P. mirabilis [4]; Proteus mirabilis, P. mirabilis Laboratory No. 414, inoculum 2.5 CFU 10^5/ml
  MBC: 0.125 µg/mL (≈ 0.346 µM)
E. faecalis [5]; [12]
  MBC: 128 µg/mL (≈ 354 µM)
  MIC: 32 µg/mL (≈ 88.6 µM)
E. faecalis [5]; [13]
  MBC: 2 µg/mL (≈ 5.53 µM)
  MIC: 2 µg/mL (≈ 5.53 µM)
E. faecalis [5]; E. faecalis isolate (0.06/2)
  MIC: 2 µg/mL (≈ 5.53 µM)
E. faecalis [5]; E. faecalis isolate (0.5/32)
  MIC: 32 µg/mL (≈ 88.6 µM)
E. faecalis [6]; E. faecalis (13) Laboratory No. 55
  AUBTC (range): 0 (0-54)
E. faecalis [6]; E. faecalis (16) Laboratory No. 60
  AUBTC (range): 135 (90-204)
[7]
  tolerability: well tolerated
Haemophilus influenzae
  MIC90: 0.06 µg/mL (≈ 0.166 µM)
  MIC Range: 0.008 to 0.25 µg/mL
Streptococcus pyogenes
  MIC Range: 0.5 to 4 µg/mL
Streptococcus pyogenes; read-out: MIC90
  MIC90: 2 µg/mL (≈ 5.53 µM)
